Where two headings read alike, the source gives them in different places.
Experiments:
[1] = system: methicillin-resistant S. aureus (MRSA); conditions: cited from earlier work
[2] = system: methicillin-sensitive S. aureus (MSSA); conditions: cited from earlier work
[3] = system: SosA protein of Staphylococcus aureus; assay: SosA expression of Staphylococcus aureus according to concentration of ciprofloxacin, detected using SosA antibodies; assay type: cell-based; conditions: detected using the SosA antibody, FIG. 10
Description: Pellets of microorganisms were suspended with 1 ml of DPBS containing sosA-specific antibodies that were diluted at 1:2,000 and cultured overnight at 37° C., 180 rpm. Thereafter, centrifugation was performed at 13,000 rpm for 1 minute, secondary antibodies (anti-mouse FITC, Abcam) diluted at 1:500 were treated, and culture was performed at 37° C., 180 rpm for 3 hours. 100 ul of a sample was transferred to a 12-well plate containing an 18 mm cover glass and centrifuged at 1,100 rpm for 1 minute, and the bacteria were attached to a cover glass. The plates were washed three times with DPBS, and centrifugation was performed at 1,100 rpm for 1 minute. The cover glass was attached to the slide, and then imaging was performed using the Zeiss LSM 5 live confocal microscope. Images were acquired using Plan-Apochromat 63×1.4 NA objectives, and analysis was performed to detect GFP fluorescence by setting to 488 nm for excitation wavelength and 513±12 nm for emission wavelength.
In addition, each sample was transferred to a 96-well plate, and absorbance measurement and fluorescence analysis were performed using Ensight (PerkinElmer). In the case of green fluorescence, the excitation wavelength was at 488 nm and the emission wavelength was at 528 nm, and in the case of red fluorescence, the excitation wavelength was at 558 nm and the emission wavelength was at 615 nm. […]

SMILES: CN[C@H](CC(C)C)C(=O)N[C@H]1C(=O)N[C@@H](CC(N)=O)C(=O)N[C@H]2C(=O)N[C@H]3C(=O)N[C@H](C(=O)N[C@H](C(=O)O)c4cc(O)cc(O)c4-c4cc3ccc4O)[C@H](O)c3ccc(c(Cl)c3)Oc3cc2cc(c3O[C@@H]2O[C@H](CO)[C@@H](O)[C@H](O)[C@H]2O[C@H]2C[C@](C)(N)[C@H](O)[C@H](C)O2)Oc2ccc(cc2Cl)[C@H]1O [Vancomycin, vancomycin]
- antibiotic susceptibility/resistance ([1]; strain MRSA #1): Susceptible
- antibiotic susceptibility/resistance ([1]; strain MRSA #2): Susceptible
- antibiotic susceptibility/resistance ([1]; strain MRSA #3): Susceptible
- antibiotic susceptibility/resistance ([1]; strain MRSA #4): Susceptible
- antibiotic susceptibility/resistance ([1]; strain MRSA #5): Susceptible
- antibiotic susceptibility/resistance ([1]; strain MRSA #6): Susceptible
- antibiotic susceptibility/resistance ([1]; strain MRSA #7): Susceptible
- antibiotic susceptibility/resistance ([1]; strain MRSA #8): Susceptible
- antibiotic susceptibility/resistance ([1]; strain MRSA #9): Susceptible
- antibiotic susceptibility/resistance ([1]; strain MRSA #10): Susceptible
- antibiotic susceptibility/resistance ([1]; strain MRSA #11): Susceptible
- antibiotic susceptibility/resistance ([1]; strain MRSA #12): Susceptible
- antibiotic susceptibility/resistance ([1]; strain MRSA #13): Susceptible
- antibiotic susceptibility/resistance ([1]; strain MRSA #14): Susceptible
- antibiotic susceptibility/resistance ([1]; strain MRSA #15): Susceptible
- antibiotic susceptibility/resistance ([1]; strain MRSA #16): Susceptible
- antibiotic susceptibility/resistance ([1]; strain MRSA #17): Susceptible
- antibiotic susceptibility/resistance ([1]; strain MRSA #18): Susceptible
- antibiotic susceptibility/resistance ([1]; strain MRSA #19): Susceptible
- antibiotic susceptibility/resistance ([1]; strain MRSA #20): Resistant
- antibiotic susceptibility/resistance ([1]; strain MRSA #21): Susceptible
- antibiotic susceptibility/resistance ([1]; strain MRSA #22): Susceptible
- antibiotic susceptibility/resistance ([1]; strain MRSA #23): Susceptible
- antibiotic susceptibility/resistance ([1]; strain MRSA #24): Susceptible
- antibiotic susceptibility/resistance ([1]; strain MRSA #25): Susceptible
- antibiotic susceptibility/resistance ([1]; strain MRSA #26): Susceptible
- antibiotic susceptibility/resistance ([1]; strain MRSA #27): Susceptible
- antibiotic susceptibility/resistance ([1]; strain MRSA #28): Susceptible
- antibiotic susceptibility/resistance ([1]; strain MRSA #29): Susceptible
- antibiotic susceptibility/resistance ([1]; strain MRSA #30): Resistant
- antibiotic susceptibility/resistance ([2]; strain MSSA #1): Susceptible
- antibiotic susceptibility/resistance ([2]; strain MSSA #2): Susceptible
- antibiotic susceptibility/resistance ([2]; strain MSSA #3): Susceptible
- antibiotic susceptibility/resistance ([2]; strain MSSA #4): Susceptible
- antibiotic susceptibility/resistance ([2]; strain MSSA #5): Susceptible
- antibiotic susceptibility/resistance ([2]; strain MSSA #6): Susceptible
- antibiotic susceptibility/resistance ([2]; strain MSSA #7): Susceptible
- antibiotic susceptibility/resistance ([2]; strain MSSA #8): Susceptible
- antibiotic susceptibility/resistance ([2]; strain MSSA #9): Susceptible
- antibiotic susceptibility/resistance ([2]; strain MSSA #10): Susceptible
- antibiotic susceptibility/resistance ([2]; strain MSSA #11): Susceptible
- antibiotic susceptibility/resistance ([2]; strain MSSA #12): Susceptible
- antibiotic susceptibility/resistance ([2]; strain MSSA #13): Susceptible
- antibiotic susceptibility/resistance ([2]; strain MSSA #14): Susceptible
- antibiotic susceptibility/resistance ([2]; strain MSSA #15): Susceptible
- antibiotic susceptibility/resistance ([2]; strain MSSA #16): Susceptible
- antibiotic susceptibility/resistance ([2]; strain MSSA #17): Susceptible
- antibiotic susceptibility/resistance ([2]; strain MSSA #18): Susceptible
- antibiotic susceptibility/resistance ([2]; strain MSSA #19): Susceptible
- antibiotic susceptibility/resistance ([2]; strain MSSA #20): Susceptible

SMILES: COc1cccc(OC)c1C(=O)N[C@@H]1C(=O)N2[C@@H]1SC(C)(C)[C@@H]2C(=O)O [Methicillin, methicillin]
- antibiotic susceptibility/resistance ([1]; strain MRSA #1): Resistant
- antibiotic susceptibility/resistance ([1]; strain MRSA #2): Resistant
- antibiotic susceptibility/resistance ([1]; strain MRSA #3): Resistant
- antibiotic susceptibility/resistance ([1]; strain MRSA #4): Resistant
- antibiotic susceptibility/resistance ([1]; strain MRSA #5): Resistant
- antibiotic susceptibility/resistance ([1]; strain MRSA #6): Resistant
- antibiotic susceptibility/resistance ([1]; strain MRSA #7): Resistant
- antibiotic susceptibility/resistance ([1]; strain MRSA #8): Resistant
- antibiotic susceptibility/resistance ([1]; strain MRSA #9): Resistant
- antibiotic susceptibility/resistance ([1]; strain MRSA #10): Resistant
- antibiotic susceptibility/resistance ([1]; strain MRSA #11): Resistant
- antibiotic susceptibility/resistance ([1]; strain MRSA #12): Resistant
- antibiotic susceptibility/resistance ([1]; strain MRSA #13): Resistant
- antibiotic susceptibility/resistance ([1]; strain MRSA #14): Resistant
- antibiotic susceptibility/resistance ([1]; strain MRSA #15): Resistant
- antibiotic susceptibility/resistance ([1]; strain MRSA #16): Resistant
- antibiotic susceptibility/resistance ([1]; strain MRSA #17): Resistant
- antibiotic susceptibility/resistance ([1]; strain MRSA #18): Resistant
- antibiotic susceptibility/resistance ([1]; strain MRSA #19): Resistant
- antibiotic susceptibility/resistance ([1]; strain MRSA #20): Resistant
- antibiotic susceptibility/resistance ([1]; strain MRSA #21): Resistant
- antibiotic susceptibility/resistance ([1]; strain MRSA #22): Resistant
- antibiotic susceptibility/resistance ([1]; strain MRSA #23): Resistant
- antibiotic susceptibility/resistance ([1]; strain MRSA #24): Susceptible
- antibiotic susceptibility/resistance ([1]; strain MRSA #25): Resistant
- antibiotic susceptibility/resistance ([1]; strain MRSA #26): Resistant
- antibiotic susceptibility/resistance ([1]; strain MRSA #27): Resistant
- antibiotic susceptibility/resistance ([1]; strain MRSA #28): Resistant
- antibiotic susceptibility/resistance ([1]; strain MRSA #29): Resistant
- antibiotic susceptibility/resistance ([1]; strain MRSA #30): Resistant
- antibiotic susceptibility/resistance ([2]; strain MSSA #1): Susceptible
- antibiotic susceptibility/resistance ([2]; strain MSSA #2): Susceptible
- antibiotic susceptibility/resistance ([2]; strain MSSA #3): Susceptible
- antibiotic susceptibility/resistance ([2]; strain MSSA #4): Susceptible
- antibiotic susceptibility/resistance ([2]; strain MSSA #5): Susceptible
- antibiotic susceptibility/resistance ([2]; strain MSSA #6): Susceptible
- antibiotic susceptibility/resistance ([2]; strain MSSA #7): Susceptible
- antibiotic susceptibility/resistance ([2]; strain MSSA #8): Susceptible
- antibiotic susceptibility/resistance ([2]; strain MSSA #9): Susceptible
- antibiotic susceptibility/resistance ([2]; strain MSSA #10): Susceptible
- antibiotic susceptibility/resistance ([2]; strain MSSA #11): Susceptible
- antibiotic susceptibility/resistance ([2]; strain MSSA #12): Susceptible
- antibiotic susceptibility/resistance ([2]; strain MSSA #13): Susceptible
- antibiotic susceptibility/resistance ([2]; strain MSSA #14): Susceptible
- antibiotic susceptibility/resistance ([2]; strain MSSA #15): Susceptible
- antibiotic susceptibility/resistance ([2]; strain MSSA #16): Susceptible
- antibiotic susceptibility/resistance ([2]; strain MSSA #17): Susceptible
- antibiotic susceptibility/resistance ([2]; strain MSSA #18): Susceptible
- antibiotic susceptibility/resistance ([2]; strain MSSA #19): Susceptible
- antibiotic susceptibility/resistance ([2]; strain MSSA #20): Susceptible

SMILES: O=C(O)c1cn(C2CC2)c2cc(N3CCNCC3)c(F)cc2c1=O [Ciprofloxacin, ciprofloxacin]
- antibiotic susceptibility/resistance ([1]; strain MRSA #1): Resistant
- antibiotic susceptibility/resistance ([1]; strain MRSA #2): Resistant
- antibiotic susceptibility/resistance ([1]; strain MRSA #3): Susceptible
- antibiotic susceptibility/resistance ([1]; strain MRSA #4): Susceptible
- antibiotic susceptibility/resistance ([1]; strain MRSA #5): Resistant
- antibiotic susceptibility/resistance ([1]; strain MRSA #6): Resistant
- antibiotic susceptibility/resistance ([1]; strain MRSA #7): Resistant
- antibiotic susceptibility/resistance ([1]; strain MRSA #8): Resistant
- antibiotic susceptibility/resistance ([1]; strain MRSA #9): Resistant
- antibiotic susceptibility/resistance ([1]; strain MRSA #10): Resistant
- antibiotic susceptibility/resistance ([1]; strain MRSA #11): Resistant
- antibiotic susceptibility/resistance ([1]; strain MRSA #12): Resistant
- antibiotic susceptibility/resistance ([1]; strain MRSA #13): Resistant
- antibiotic susceptibility/resistance ([1]; strain MRSA #14): Resistant
- antibiotic susceptibility/resistance ([1]; strain MRSA #15): Resistant
- antibiotic susceptibility/resistance ([1]; strain MRSA #16): Resistant
- antibiotic susceptibility/resistance ([1]; strain MRSA #17): Resistant
- antibiotic susceptibility/resistance ([1]; strain MRSA #18): Susceptible
- antibiotic susceptibility/resistance ([1]; strain MRSA #19): Resistant
- antibiotic susceptibility/resistance ([1]; strain MRSA #20): Resistant
- antibiotic susceptibility/resistance ([1]; strain MRSA #21): Resistant
- antibiotic susceptibility/resistance ([1]; strain MRSA #22): Resistant
- antibiotic susceptibility/resistance ([1]; strain MRSA #23): Resistant
- antibiotic susceptibility/resistance ([1]; strain MRSA #24): Susceptible
- antibiotic susceptibility/resistance ([1]; strain MRSA #25): Resistant
- antibiotic susceptibility/resistance ([1]; strain MRSA #26): Susceptible
- antibiotic susceptibility/resistance ([1]; strain MRSA #27): Susceptible
- antibiotic susceptibility/resistance ([1]; strain MRSA #28): Resistant
- antibiotic susceptibility/resistance ([1]; strain MRSA #29): Resistant
- antibiotic susceptibility/resistance ([1]; strain MRSA #30): Resistant
- expression of SosA [3]: increases with the increase in the administration concentration
- antibiotic susceptibility/resistance ([2]; strain MSSA #1): Susceptible
- antibiotic susceptibility/resistance ([2]; strain MSSA #2): Susceptible
- antibiotic susceptibility/resistance ([2]; strain MSSA #3): Susceptible
- antibiotic susceptibility/resistance ([2]; strain MSSA #4): Susceptible
- antibiotic susceptibility/resistance ([2]; strain MSSA #5): Susceptible
- antibiotic susceptibility/resistance ([2]; strain MSSA #6): Susceptible
- antibiotic susceptibility/resistance ([2]; strain MSSA #7): Resistant
- antibiotic susceptibility/resistance ([2]; strain MSSA #8): Resistant
- antibiotic susceptibility/resistance ([2]; strain MSSA #9): Susceptible
- antibiotic susceptibility/resistance ([2]; strain MSSA #10): Susceptible
- antibiotic susceptibility/resistance ([2]; strain MSSA #11): Susceptible
- antibiotic susceptibility/resistance ([2]; strain MSSA #12): Susceptible
- antibiotic susceptibility/resistance ([2]; strain MSSA #13): Susceptible
- antibiotic susceptibility/resistance ([2]; strain MSSA #14): Susceptible
- antibiotic susceptibility/resistance ([2]; strain MSSA #15): Susceptible
- antibiotic susceptibility/resistance ([2]; strain MSSA #16): Susceptible
- antibiotic susceptibility/resistance ([2]; strain MSSA #17): Susceptible
- antibiotic susceptibility/resistance ([2]; strain MSSA #18): Susceptible
- antibiotic susceptibility/resistance ([2]; strain MSSA #19): Susceptible
- antibiotic susceptibility/resistance ([2]; strain MSSA #20): Resistant

Reference: patent publication US20230392217A1 (priority 2020, published 2023)
